In patent US7507730B2, “Substituted pyrazolo[1,5-a]pyrimidines as potassium channel activators” (Bristol-Myers Squibb Company, priority 2005, dated 2009):

Target: Kv1.5 (Homo sapiens, UniProt P22460)
Assay: Kv1.5 inhibition assay (IKur inhibitor assay per cited references)
Assay type: cell-based
Details: for Kv1.5% inhibition / inhibition at 0.3 µM: at 0.3 μM; for IC50: read-out: Kv1.5 IC50
Description: Assays to determine the degree of activity of a compound as an IKur inhibitor are well known in the art and are described in references such as J. Gen. Physiol. Apr.; 101 (4):513-43, and Br. J. Pharmacol. 1995 May; 115(2):267-74.

Sequence of Kv1.5 (P22460 whole entry): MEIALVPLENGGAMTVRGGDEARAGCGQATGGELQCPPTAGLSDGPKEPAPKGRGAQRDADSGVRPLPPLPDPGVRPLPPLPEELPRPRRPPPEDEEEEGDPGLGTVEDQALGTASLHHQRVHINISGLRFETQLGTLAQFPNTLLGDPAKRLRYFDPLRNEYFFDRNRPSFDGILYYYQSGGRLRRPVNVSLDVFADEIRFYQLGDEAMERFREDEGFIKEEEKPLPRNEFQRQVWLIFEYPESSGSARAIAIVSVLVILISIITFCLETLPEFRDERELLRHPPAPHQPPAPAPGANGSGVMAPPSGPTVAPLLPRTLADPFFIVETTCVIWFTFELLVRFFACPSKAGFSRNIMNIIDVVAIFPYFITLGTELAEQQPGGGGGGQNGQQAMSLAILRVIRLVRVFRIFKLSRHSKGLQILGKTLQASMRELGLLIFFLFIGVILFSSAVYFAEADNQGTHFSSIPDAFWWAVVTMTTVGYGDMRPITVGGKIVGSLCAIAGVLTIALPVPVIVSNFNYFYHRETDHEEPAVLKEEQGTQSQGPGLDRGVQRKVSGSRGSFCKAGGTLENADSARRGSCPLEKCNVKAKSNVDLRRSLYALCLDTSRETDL

Row | Compound | Kv1.5% inhibition [%] | further results
1 | CC1=C(C(=O)N(C)S(=O)(=O)c2c(C)noc2C)C(c2ccc(Cl)c(Cl)c2)n2nc(C)cc2N1 (single isomer, unassigned) [Example 94 Isomer 2, 7-(3,4-Dichlorophenyl)-N-(3,5-dimethylisoxazol-4-ylsulfonyl)-N,2,5-trimethyl-4,7-dihydropyrazolo[1,5-a]pyrimidine-6-carboxamide] | 63 | –
2 | CC1=C(C(=O)N(C)S(=O)(=O)c2c(C)noc2C)C(c2ccc(Cl)c(Cl)c2)n2nc(C(F)(F)F)cc2N1 (single isomer, unassigned) [Example 95 Isomer 1, 7-(3,4-Dichlorophenyl)-N-(3,5-dimethylisoxazol-4-ylsulfonyl)-N,5-dimethyl-2-(trifluoromethyl)-4,7-dihydropyrazolo[1,5-a]pyrimidine-6-carboxamide] | – | inhibition at 0.3 µM: 91%
3 | CC1=C(C(=O)N(C)S(=O)(=O)c2c(C)noc2C)C(c2ccc(Cl)c(Cl)c2)n2nc(C(F)(F)F)cc2N1 (single isomer, unassigned) [Example 95 Isomer 2, 7-(3,4-Dichlorophenyl)-N-(3,5-dimethylisoxazol-4-ylsulfonyl)-N,5-dimethyl-2-(trifluoromethyl)-4,7-dihydropyrazolo[1,5-a]pyrimidine-6-carboxamide] | 71 | –
4 | CC1=C(C(=O)N(C)S(=O)(=O)C(C)C)C(c2ccc(Cl)c(Cl)c2)n2nc(C(F)(F)F)cc2N1 (single isomer, unassigned) [Example 96 Isomer 1, 7-(3,4-Dichlorophenyl)-N-(isopropylsulfonyl)-N,5-dimethyl-2-(trifluoromethyl)-4,7-dihydropyrazolo[1,5-a]pyrimidine-6-carboxamide] | – | inhibition at 0.3 µM: 57%
5 | CC1=C(C(=O)N(C)S(=O)(=O)C2CC2)C(c2ccc(Cl)c(Cl)c2)n2nc(C(F)(F)F)cc2N1 (single isomer, unassigned) [Example 98 Isomer 1, N-(Cyclopropylsulfonyl)-7-(3,4-dichlorophenyl)-N,5-dimethyl-2-(trifluoromethyl)-4,7-dihydropyrazolo[1,5-a]pyrimidine-6-carboxamide] | – | IC50: 112 nM
6 | CC1=C(C(=O)N(C)S(=O)(=O)C2CC2)C(c2ccc(Cl)c(Cl)c2)n2nc(C(F)(F)F)cc2N1 (single isomer, unassigned) [Example 98 Isomer 2, N-(Cyclopropylsulfonyl)-7-(3,4-dichlorophenyl)-N,5-dimethyl-2-(trifluoromethyl)-4,7-dihydropyrazolo[1,5-a]pyrimidine-6-carboxamide] | – | IC50: 200 nM

Further lines, with some results ahead:

Row | Kv1.5% inhibition [%] | Compound | further results
7 | 56 | CC1=C(C(=O)N(C)S(=O)(=O)C(C)C)C(c2ccc(Cl)c(Cl)c2)n2nc(C(F)(F)F)cc2N1 (single isomer, unassigned) [Example 96 Isomer 2, 7-(3,4-Dichlorophenyl)-N-(isopropylsulfonyl)-N,5-dimethyl-2-(trifluoromethyl)-4,7-dihydropyrazolo[1,5-a]pyrimidine-6-carboxamide] | –
8 | 91 | CCN(C(=O)C1=C(C)Nc2cc(C)nn2C1c1ccc(Cl)c(Cl)c1)S(=O)(=O)c1c(C)noc1C (single isomer, unassigned) [Example 97 Isomer 1, 7-(3,4-Dichlorophenyl)-N-(3,5-dimethylisoxazol-4-ylsulfonyl)-N-ethyl-2,5-dimethyl-4,7-dihydropyrazolo[1,5-a]pyrimidine-6-carboxamide] | –
9 | 50 | CCN(C(=O)C1=C(C)Nc2cc(C)nn2C1c1ccc(Cl)c(Cl)c1)S(=O)(=O)c1c(C)noc1C (single isomer, unassigned) [Example 97 Isomer 2, 7-(3,4-Dichlorophenyl)-N-(3,5-dimethylisoxazol-4-ylsulfonyl)-N-ethyl-2,5-dimethyl-4,7-dihydropyrazolo[1,5-a]pyrimidine-6-carboxamide] | –
